The source of these data is patent US20110256241A1, “METHODS AND COMPOSITIONS FOR THE TREATMENT OF CANCER” (TRASLATIONAL CANCER DRUGS PHARMA, S.L., priority 2008, published 2011).

Read-outs that look alike come from different tables or passages of the source.

Data set [1] has as its system H460 cells. In words: Cell proliferation assay (MTT). Type of data set: cell-based, human. To be noted: then ChoK inhibitor, read-out: IC50 (72 h). Here is the method: All cell lines used in this study were maintained under standard conditions of temperature (37° C.), humidity (95%), and carbon dioxide (5%). Human primary bronchial epithelial cells, NHBE (BEC) (Cambrex, CC-2541) were grown in BEGM (Bronchial Epithelial cell growth media) BulletKit (Cambrex, CC-3170). Human primary mammary epithelial cells, HMEC (Clonetics, CC-2551) were grown in MEBM medium supplemented with a bullet kit (Clonetics, CC-3150). Epithelial non-small lung cancer cells H460 and H1299, and small cell lung cancer cell lines H510 and H82 were maintained in RPMI supplemented with 10% Fetal Bovine Serum (FBS) (Life Technologies, Grand Island, N.Y.).
Cells were seeded on 96-well plates (BD, Falcon, Bioscience, San Jose, Calif., USA) at a density of 6000 cells/well, and incubated for 24 h under standard conditions. Then, cells were treated with different concentrations of the ChoK inhibitors (quadruplicates of each concentration) and maintained for 72 hours. […] Absorbance is read at 595 nm in a VersaMax Microplate Reader (Molecular Devices, Sunnyvale, Calif., USA). For sensitization with acid ceramidase inhibitor, cells were pre-treated […] with the correspondent IC50 for NOE before treatment with ChoK inhibitors. NOE (N-Oleoyl ethanolamine) was obtained from Calbiochem (La Jolla, Calif., USA).
Thus, disruption in the levels of acid ceramidase may allow ChoK inhibitors to have a better effect in these cells. To verify this hypothesis, we used the previously characterized acid ceramidase inhibitor, N-Oleoylethanolamine (NOE) (Grijalvo S., Chem Phys Lipids. 2006; 144:69-84), to investigate if the inhibition of acid ceramidase sensitizes tumour cell lines to ChoK inhibitors. To that end, H460 cells were pre-treated with NOE for three hours to inhibit acid ceramidase.
H460 cells were pre-treated with these compounds for three hours to inhibit ceramidases. […] Furthermore, the combined use of ChoK inhibitors and acid ceramidase inhibitors provides a further stronger anticancer activity.

In data set [2] the test system is H460 cells. Briefly: Affymetrix gene expression analysis of 5-FU metabolization pathway. The format is cell-based, human. Also noted: key to RRM2 (Ribonucleotide Reductase) gene expression / TYMS (Thymidylate synthetase) gene expression / DUT (Deoxyuridine triphosphatase) gene expression: Signal Log Ratio, base 2 (1.0 = 2-fold increase, 0 = no change). Here is the method: The RNAs from the biopsies selected were isolated for microarrays and QT-PCR, using RNeasy Mini Kit (QIAGEN, Hilden, Germany) following the instructions of the manufactures. Samples were prepared and the array hybridized according to the Affymetrix GeneChip Expression Analysis Technical Manual. Hybridization to Affymetrix U133plus2 GeneChips (54,614 probe sets, representing 47,000 transcripts), staining, washing and scanning procedures were carried out at the Genomic Facility in the National Center of Biotechnology (Madrid, Spain) as described in www.affymetrix.com (Affymetrix, Santa Clara, Calif.). The Signal Log Ratio estimates the magnitude and direction of change of a transcript. The log scale used is base 2, thus a Signal Log Ratio of 1.0 indicates an increase of the transcript level by 2 fold and −1.0 indicates a decrease by 2 fold. A Signal Log Ratio of zero would indicate no change.
With the aim of further investigating the mechanism of ChoKIs sensitization to the antitumoral effect of 5-FU, a gene expression analysis of the 5-FU-metabolisation pathway was performed in H460 cells treated at different times with MN58b and RSM-932A using affymetrix technology.

A further data set relates to SW620 cells. Briefly: MTT cytotoxicity, ChoKI and TRAIL.
Another data set has as its system H460 xenografts. In words: NSCLC xenografts, in vivo tumor growth inhibition. To be noted: FIG. 7B; combination given sequentially. Here is the method: Indicated cells were resuspended in DMEM just before inoculation (10^6 cells/0.1 ml), and injected subcutaneously in nu/nu immunosuppressed mice. Mice were kept under standard laboratory conditions according to the guidelines of the Spanish Government. When tumours reached a mean volume of 0.1 cm^3, mice were randomized to control and treated groups. Treatments with the antitumoral agents (and vehicle for control mice) were performed i.p. with following the indicated schedules. Tumors were monitored three times a week by measuring the major (D) and minor (d) diameters, and tumour volume was calculated by V=(D*d^2)/2. Statistical analysis of significant changes in tumour growth was calculated using SPSS software v. 13.0.

Another data set relates to SW62 colon cancer cells. In words: QT-PCR validation of 5-FU metabolization pathway genes. The format is cell-based, human. Details: key: DR (Down-regulation); UR (Up-regulation). As to the method:
(§1) 1 μg of RNA was used to generate cDNA using High-Capacity cDNA Archive Kit (Applied Biosystems), and quantitative real-time PCR was carried out in triplicate using the ABI PRISM 7700 Sequence Detector (Applied Biosystems). GAPDH and 18S ribosomal mRNA were amplified as internal controls. Probes used for amplification were from Applied Biosystems as Taqman Gene Expression Assays (ASAH1: HS00602774—M1 Taqman Probe, ASAH2: HS00184096_M1 Taqman Probe and ASAH3: HS00370322_M1 Taqman Probe, DUT: HS00798995_S1 Taqman Probe, TYMS: HS00426591_M1 Taqman Probe, UPP1: HS00427695—M1 Taqman Probe, RRM2: HS00357247_G1 Taqman Probe). The 2-^ΔΔCt method was used (Livak K J., Methods. 2001; 25:402-8) to calculate the relative expression of each gene.

For a further data set, the system named is DLD-1 colon cancer cells. Described as above. The format is cell-based, human. Details: key: DR (Down-regulation); UR (Up-regulation). As to the method:
as §1

For another data set, the system named is HT29 colon cancer cells. Described as above. The format is cell-based, human. Details: key: DR (Down-regulation); UR (Up-regulation). As to the method: as §1
Data set [3] relates to primary cultures of tumours of patients with NSCLC. Briefly: Primary cultures of NSCLC tumours, crystal violet quantification. To be noted: primary NSCLC tumour cultures, 0-20 μM, 10 days. The format is cell-based, human. As to the method: Resected tissues from NSCLC patients were dissociated (Cell dissociation sieve-tissued grinder Kit CD1, SIGMA), and the obtained cells were seeded in 24 well plates (BD, Falcon, Bioscience, San Jose, Calif., USA). […] The final persistent population in each well was quantified by the method of Cristal Violet as previously described (Rodríguez-González, A. et al., Oncogene, 22:8803-8812). […]

In the next data set the test system is DLD-1 cells. In words: Apoptosis detection by flow cytometry, Annexin V & IP. Type of data set: cell-based, human. Particulars: DLD-1, 7 hours treatment. As to the method:
Cell death was analysed by flow cytometry using de Aposcreen Annexin V Apoptosis Kit (Southern Biotech) according to manufacturer procedures. Cells were seeded at 4×10^5 cells per well in six-well. Twenty-four hours later, cells were treated with the indicated compounds. Cells were rinsed twice in cold PBS and after removing it cells were resuspended in cold 1× binding buffer to a concentration from 1×10^6 to 1×10^7 cells/mL. 100 μl of these cells were collected in a flow cytometry tube and 10 μl of Annexin V were added. After gently vortexing, tubes were incubated for 15 minutes on ice, protected from light. Without washing, 380 μl of 1× binding buffer were added to each sample prior to 10 μl of propidium iodine. Cells were immediately analysed by flow cytometry.
The synergism observed in vitro was also analysed by flow cytometry using Annexin V & IP staining to distinguish between apoptosis and necrosis or late apoptosis. […] When DLD-1 cells are treated with TRAIL alone there is a 35% of apoptosis. In combination tumour cell death is amplified up to 50%. When DLD-1 are treated with RSM-932A (TCD-717) in combination with TRAIL there is a 55% increase in tumour cell death but mainly the necrotic or late apoptosis population because RSM-932A (TCD-717) has an effect that is faster than MN58. […]

Description for SW620 cells: For this purpose, cells were seeded in 96 multiwell plates at a density of 1×10^4 cells/well 24 hours before treatment. Cells were treated with different concentrations of RSM-932A (ChoKI) or TRAIL for different times and the cell proliferation was quantified using the MTT [3-(4,5-Dimethylthiazol-2-yl)-2,5-Diphenyltetrazolium Bromide] colorimetric assay.

With `CCCCCCCCCCCCCC(=O)N[C@H](C)[C@@H](O)c1ccccc1` [DEM, (1S,2R)-N-myristoylamino-phenylpropanol-1, reference compound], the IC 50 with H460 cells [1] (combinations: pre-treated with ceramidase inhibitor for three hours) stood at 31 µM.
Turning to `CN(c1ccc(Cl)cc1)c1cc[n+](Cc2ccc(-c3ccc(C[n+]4ccc(N(C)c5ccc(Cl)cc5)c5ccccc54)cc3)cc2)c2ccccc12.[Br-].[Br-]` [RSM-932A, 1,1′-(biphenyl-4, 4′-diylmethylene) bis[4-(4-chloro-N-methylanilino-)quinolinium]dibromide], in the data set on H460 cells [2] (H460, 9 h), the “DUT (Deoxyuridine triphosphatase) gene expression” value is −1.12, the “RRM2 (Ribonucleotide Reductase) gene expression” value was −1.39, the “TYMS (Thymidylate synthetase) gene expression” value is on record as −1.03 and the “UPP1 (Uridine phosphorylase 1) gene expression” value is listed as “+1.83”. Also, in the data set with H460 cells [2] (H460, 24 h), the “DUT (Deoxyuridine triphosphatase) gene expression” value is listed as −2.08, the “RRM2 (Ribonucleotide Reductase) gene expression” value is −3.69, the “TYMS (Thymidylate synthetase) gene expression” value is recorded as −2.73 and the “UPP1 (Uridine phosphorylase 1) gene expression” value was “+2.48”. For the same molecule, the “cytotoxicity, percentage of cell death” value with SW620 cells (SW620, combination: ChoKI pre-treatment 2 hours, then TRAIL 24 h) was 9%. In addition, the “Statistical significance (p), tumour growth” value in the data set on H460 xenografts stood at 0.157. Besides, in the data set on SW62 colon cancer cells, the DUT expression result is listed as “DR”, the RRM expression entry is “DR”, the TYM expression result is on record as “DR” and the UPP expression entry is listed as “UR”. In the data set with DLD-1 colon cancer cells, the DUT expression result is on record as “DR”, the RRM expression entry is reported as “DR”, the TYM expression result was “DR” and the UPP expression result is recorded as “UR”. In the data set with HT29 colon cancer cells, the DUT expression entry was “DR”, the RRM expression entry was “DR”, the TYM expression entry is recorded as “DR” and the UPP expression result is “UR”.
Consider `CCC1=C[C@@H]2CN(C1)Cc1c([nH]c3ccccc13)[C@@](C(=O)OC)(c1cc3c(cc1OC)N(C)[C@H]1[C@@](O)(C(=O)OC)[C@H](OC(C)=O)[C@]4(CC)C=CCN5CC[C@]31[C@@H]54)C2` [Vinolrelbine, vinorelbine], for which, in data set [3], the “RESISTANT (number of samples)” value was found to be 24 and the “SENSITIVES (number of samples)” value was 15.
The like results for `CC(=O)O[C@H]1C(=O)[C@@]2(C)[C@H]([C@H](OC(=O)c3ccccc3)[C@]3(O)C[C@H](OC(=O)[C@H](O)[C@@H](NC(=O)c4ccccc4)c4ccccc4)C(C)=C1C3(C)C)[C@]1(OC(C)=O)CO[C@@H]1C[C@@H]2O` [Taxol] were, in that order, 35 and 27.
With `CCCCCCCCCCCCCC(=O)N[C@H](CO)[C@H](O)c1ccc([N+](=O)[O-])cc1` [CAY, (1R,2R)-N-myristoylamino-4′-nitro-phenylpropandio1-1,3, reference compound], in the data set with H460 cells [1] (Homo sapiens, NCI-H460, combinations: pre-treated with ceramidase inhibitor for three hours), the IC 50 was found to be 28 µM.
With `Nc1ccn([C@@H]2O[C@H](CO)[C@@H](O)C2(F)F)c(=O)n1` [Gemcitabine, gemcitabine], in data set [3], the “RESISTANT (number of samples)” value is 34 and the “SENSITIVES (number of samples)” value amounted to 18.

B1: TRAIL: extracellular domain of human TRAIL (amino acids 95-281) (protein, listed as Homo sapiens)
chain: TSEETISTVQEKQQNISPLVRERGPQRVAAHITGTRGRSNTLSSPNSKNEKALGRKINSWESSRSGHSFLSNLHLRNGELVIHEKGFYYIYSQTYFRFQEEIKENTKNDKQMVQYIYKYTSYPDPILLMKSARNSCWSKDAEYGLYSIYQGGIFELKENDRIFVSVTNEHLIDMDHEASFFGAFLVG
In the case of B1, in the data set with SW620 cells (SW620, FIG. 8B), the “sensitivity to TRAIL” value is on record as “nearly resistant”. The apoptosis in the data set on DLD-1 cells worked out at 35%.
